Laboratory results published in patent US11059795B2, “Androgen receptor modulators and methods for their use” (ESSA Pharma, Inc., priority 2018, dated 2021).

Experiments:
[1] = biological target: T1, androgen receptor (AR) (Homo sapiens, UniProt P10275, T878A); test: Androgen-induced PSA (6.1 kb)-luciferase reporter assay in LNCaP cells; type: cell-based; conditions: LNCaP cells transfected with PSA (6.1 kb)-luciferase reporter, R1881 1 nM, 24 h; read-out: PSA-Luc IC50 Range
T1 construct: LNCaP cells were transiently transfected with the PSA (6.1 kb)-luciferase reporter for 24 h; endogenous in cells; host or cells: LNCaP
T1 sequence (P10275 1-920 T878A): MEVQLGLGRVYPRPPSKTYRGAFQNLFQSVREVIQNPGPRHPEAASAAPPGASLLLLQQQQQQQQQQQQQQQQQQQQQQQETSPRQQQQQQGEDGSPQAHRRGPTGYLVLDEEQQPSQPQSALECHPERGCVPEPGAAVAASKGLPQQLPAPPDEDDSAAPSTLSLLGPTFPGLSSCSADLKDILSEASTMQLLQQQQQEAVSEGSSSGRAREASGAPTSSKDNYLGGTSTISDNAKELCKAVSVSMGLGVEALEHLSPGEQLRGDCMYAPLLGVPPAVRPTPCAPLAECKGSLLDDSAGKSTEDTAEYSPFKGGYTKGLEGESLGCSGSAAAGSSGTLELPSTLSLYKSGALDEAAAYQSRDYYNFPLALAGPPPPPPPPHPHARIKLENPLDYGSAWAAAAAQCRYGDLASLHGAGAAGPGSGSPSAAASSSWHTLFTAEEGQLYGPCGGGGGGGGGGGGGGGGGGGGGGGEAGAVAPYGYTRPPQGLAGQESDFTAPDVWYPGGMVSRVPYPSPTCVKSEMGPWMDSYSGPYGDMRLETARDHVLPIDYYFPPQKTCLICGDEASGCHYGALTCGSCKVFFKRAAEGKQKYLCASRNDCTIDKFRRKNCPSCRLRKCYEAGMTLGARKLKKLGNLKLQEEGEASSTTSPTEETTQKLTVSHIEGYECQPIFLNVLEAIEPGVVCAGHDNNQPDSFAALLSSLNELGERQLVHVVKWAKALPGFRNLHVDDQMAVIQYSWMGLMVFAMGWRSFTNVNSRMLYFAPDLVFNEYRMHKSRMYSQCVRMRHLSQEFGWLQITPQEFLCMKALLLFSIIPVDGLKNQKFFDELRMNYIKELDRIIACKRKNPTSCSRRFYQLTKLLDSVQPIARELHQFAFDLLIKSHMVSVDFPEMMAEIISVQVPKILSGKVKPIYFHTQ
Procedure: The PSA (6.1 kb)-luciferase reporter contains functional AREs (androgen response elements) to which AR binds in response to androgen to induce luciferase activity.
Cells were lysed using Passive Lysis Buffer (Promega) and then collected into V-bottom 96-well tissue culture plates. Lysates were centrifuged at 4° C. for 5 minutes at 3000 rpm. To measure luminescence of LNCaP cell lysates the Firefly Luciferase Assay System (Promega) was employed, according to manufacturer's protocol. Relative luminescence units (RLU) in cell lysates were detected for 10 seconds using Promega GloMax-Multi Detection Luminometer (Promega). Values were normalized to protein content. GraphPad Prism graphing software was used to calculate IC50 values.
Comparisons between treatment and control groups were compared using Two-Way ANOVA with post-hoc Dunnett's and Tukey's tests. Differences were considered statistically significant at P values less than 0.05.

[2] = Hepatocyte stability assay, mouse hepatocytes; type: in vitro ADME; conditions: 1 μM compound, 0.5 million cells/mL, 37° C.; for hepatocyte CLint at 1 μM: mouse, cryopreserved hepatocytes, read-out: MH +/− NADPH: Clint (μL/min/million cells)
From the text: The […] of in vitro intrinsic clearance (Clint) for drug candidates in the early discovery stage is common practice in the pharmaceutical industry. The Clint values of drug candidates can help to confirm whether metabolism is the main clearance pathway when it is compared with the total body clearance in vivo. Hepatocytes are among the routinely used in vitro systems for measuring clearance. Hepatocytes have been reported to retain most of the phase I and phase II metabolic activities, and therefore, it is a useful tool to estimate the intrinsic clearance for potential drug candidates.
Metabolic stability of testing compound were be evaluated using human and mouse hepatocytes and can also be use rat, mouse, or other animal hepatocytes to predict intrinsic clearance. Cryopreserved hepatocytes were removed from the liquid nitrogen tank and thawed in a 37° C. water bath. As soon as the cells pulled away from the vial wall, they were decanted into 48 ml of warm HT medium. Cells were centrifuged for four minutes at 420 rpm (50 g). After removing the supernatant, pellet was re-suspended in warm DMEM medium. Cell density was counted by a hemacytometer.
The assay was carried out in 96-well microtiter plates. Compounds were incubated for 0, 60, 120, and 180 minutes at 37° C. with hepatocytes. Reaction mixtures (50 μL) contained a final concentration of 1 μM test compound, 0.5 million cells/mL hepatocytes in the DMEM medium. At each of the time points (for example, 0, 1, 2, and 3 hours), 200 μL of quench solution (100% acetonitrile with 0.1% formic acid) with internal standard was transferred to each well. Midazolam was included as a positive control to verify assay performance. Plates were sealed and centrifuged at 4° C. for 15 minutes at 4000 rpm. The supernatant is transferred to fresh plates for LC/MS/MS analysis.
Summarized conditions (customizable): [Compound]=[…], Positive control: midazolam and/or naloxone, [Hepatocyte]=0.5 million cells/Ml, time=0, 60, 120, and 180 min, t=37° C.
(§1) All samples were analyzed on LC/MS/MS using an AB Sciex API 4000 instrument, coupled to a Shimadzu LC-20AD LC Pump system. Analytical samples were separated using a Waters Atlantis T3 dC18 reverse phase HPLC column (20 mm×2.1 mm) at a flow rate of 0.5 mL/min. The mobile phase consisted of 0.1% formic acid in water (solvent A) and 0.1% formic acid in 100% acetonitrile (solvent B).
The extent of metabolism was calculated as the disappearance of the test compound, compared to the 0-min control reaction incubations. Initial rates were calculated for the compound concentration and used to determine t½ values and subsequently, the intrinsic clearance, Clint. Clint=(0.693)(1/t½(min))(mL incubation/million cells)

[3] = Microsomal stability assay, mouse liver microsomes; type: in vitro ADME; conditions: 1 μM compound, 0.5 mg/mL protein, 37° C.; for microsomal CLint at 1 μM: mouse, liver microsomes, pH 7.4, mouse liver microsomes, read-out: MLM +30/− NADPH: Clint (μL/min/mg protein)
Procedure: (§2) Microsomal stability assay is a widely used in vitro model to characterize the metabolic conversion by phase I enzymes, such as cytochrome P450 (CYP) enzymes. Since metabolism is known to be highly variable in different species, microsomal stability assay is commonly run in multiple species. Metabolic stability of testing compound can be evaluated using human, rat, mouse, or other animal liver or intestine microsomes to predict intrinsic clearance.
(§3) The assay was carried out in 96-well microtiter plates at 37° C. Reaction mixtures (25 μL) contained a final concentration of 1 μM test compound, 0.5 mg/mL liver microsomes protein, and 1 mM NADPH and/or 1 mM UDPGA (with alamethicin) in 100 mM potassium phosphate, pH 7.4 buffer with 3 mM MgCl2. The incubation was done with N=1, but duplicate incubation at each time point can be prepared if necessary. At each of the time points (for example, 0, 15, 30, and 60 minutes), 150 μL of quench solution (100% acetonitrile with 0.1% formic acid) with internal standard was transferred to each well. Besides the zero minute controls, mixtures containing the same components except the NADPH can also be prepared as the negative control. Verapamil was included as a positive control to verify assay performance. Plates were sealed, vortexed, and centrifuged at 4° C. for 15 minutes at 4000 rpm. The supernatant is transferred to fresh plates for LC/MS/MS analysis.
(§4) Summarized conditions: [Compound]=[…], [LM]=0.5 mg/mL, [NADPH]=1 mM and/or [UDPGA]=1 mM, Buffer=100 mM Potassium Phosphate, pH 7.4 with 3 mM MgCl2, Time=0, 15, 30, and 60 min, and Temperature=37° C.
as §1
(§5) The extent of metabolism is calculated as the disappearance of the test compound, compared to the 0-min time incubation. Initial rates are calculated for the compound concentration and used to determine half-life (t½) values and subsequently, the intrinsic clearance (Clint). Clint=(0.693)(1/t½ (min))(g of liver/kg of body weight)(mL incubation/mg of microsomal protein)(45 mg of microsomal protein/g of liver weight)

[4] = Microsomal stability assay, human liver microsomes; type: in vitro ADME; conditions: pH 7.4, 1 μM compound, 0.5 mg/mL protein, 37° C., read-out: HLM +/− NADPH: Clint (μL/min/mg protein)
Procedure: as §2, §3, §4, §1, §5

IC50 [1] [nM]	hepatocyte CLint at 1 μM [2] [µL/min/1e6 cells]	microsomal CLint at 1 μM [3] [µL/min/mg]	microsomal CLint at 1 μM [4] [µL/min/mg]	Structure (SMILES)	MH +/− NADPH: Clint (μL/min/million cells) [2]	MLM +30/− NADPH: Clint (μL/min/mg protein) ([3]; mouse liver microsomes)
500 to 2000	< 4	< 12	12 to 48	CC(C)(c1ccc(OCc2csc(NS(C)(=O)=O)n2)cc1)c1cc(Cl)c(OCCCl)c(C#N)c1 [Compound A134, N-(4-((4-(2-(3-chloro-4-(2-chloroethoxy)-5-cyanophenyl)propan-2-yl)phenoxy)methyl)thiazol-2-yl)methanesulfonamide]	–	–
500 to 2000	4 to 18	< 12	< 12	CC(=O)NN1C(=O)N(c2ccc(C(C)(C)c3cc(Cl)c(OCCCl)c(Cl)c3)cc2)C(=O)C1(C)C [Compound B5]	–	–
< 500	≥ 18	≥ 48	< 12	CC(C)(c1ccc(OCc2ncoc2S(C)(=O)=O)cc1)c1cc(Cl)c(OCCCl)c(C#N)c1 [Compound A141]	–	–
500 to 2000	< 4	< 12	12 to 48	CC(C)(c1ccc(OCc2cc(NS(C)(=O)=O)ccn2)cc1)c1cc(Cl)c(OCCCl)c(C#N)c1 [Compound A196]	–	–
500 to 2000	4 to 18	≥ 48	≥ 48	CSc1nc(COc2ccc(C(C)(C)c3cc(Cl)c(OCCCl)c(C#N)c3)cc2)c(C)o1 [Compound A118]	–	–
> 2000	≥ 18	≥ 48	< 12	CC(C)(c1ccc(OCc2ccnc(S(C)(=O)=O)n2)cc1)c1cc(Cl)c(OCCCl)c(C#N)c1 [Compound A124]	–	–
–	≥ 18	12 to 48	12 to 48	CC(C)(c1ccc(OCc2csc(S(C)(=O)=O)n2)cc1)c1cc(Cl)c(OCCCl)c(C#N)c1 [Compound A144]	–	–
–	≥ 18	< 12	12 to 48	CC(C)(c1ccc(C(=O)Nc2ccnc(N)n2)cc1)c1cc(Cl)c(OCCCl)c(Cl)c1 [Compound A146]	–	–
> 2000	–	< 12	< 12	CC(C)(c1ccc(OCc2nc(C(N)=O)co2)cc1)c1cc(Cl)c(OCCCl)c(C#N)c1 [Compound A173]	–	–

Second part, the compound before the results:

Structure (SMILES)	IC50 [1] [nM]	hepatocyte CLint at 1 μM [2] [µL/min/1e6 cells]	microsomal CLint at 1 μM [3] [µL/min/mg]	microsomal CLint at 1 μM [4] [µL/min/mg]	MH +/− NADPH: Clint (μL/min/million cells) [2]	MLM +30/− NADPH: Clint (μL/min/mg protein) ([3]; mouse liver microsomes)
C[C@](O)(c1ccc(OCc2ocnc2S(C)(=O)=O)cc1)c1cc(Cl)c(OCCCl)c(C#N)c1 [Compound A108]	500 to 2000	≥ 18	≥ 48	< 12	–	–
CC(=O)Nc1nccc(COc2ccc(C(C)(C)c3cc(C)c(OCCCl)c(C#N)c3)cc2)n1 [Compound A100]	< 500	≥ 18	≥ 48	≥ 48	–	–
CSc1ncc(COc2ccc(C(C)(C)c3cc(Cl)c(OCCCl)c(Cl)c3)cc2)o1 [Compound A111]	< 500	4 to 18	12 to 48	12 to 48	–	–
CC(C)S(=O)(=O)Nc1nc(COc2ccc(C(C)(C)c3cc(Cl)c(OCCCl)c(C#N)c3)cc2)co1 [Compound A132]	500 to 2000	< 4	< 12	< 12	–	–
CC(C)(c1ccc(OCc2cncc(NS(C)(=O)=O)n2)cc1)c1cc(Cl)c(OCCCl)c(C#N)c1 [Compound A185, N-(6-((4-(2-(3-chloro-4-(2-chloroethoxy)-5-cyanophenyl)propan-2-yl)phenoxy)methyl)pyrazin-2-yl)methanesulfonamide]	< 500	4 to 18	12 to 48	< 12	–	–
CC(C)(c1ccc(OCc2nccnc2NS(C)(=O)=O)cc1)c1cc(Cl)c(OCCCl)c(C#N)c1 [Compound A103]	< 500	–	–	12 to 48	*** (*** represent Cl < 4 cells μL/min/million cells)	** (** represents Cl in the range of 12-48 μL/min/mg protein)
CC(C)(C)C(=O)N(c1ccc(OCc2coc(NS(C)(=O)=O)n2)cc1)c1cc(Cl)c(OCCCl)c(C#N)c1 [Compound A127]	–	4 to 18	12 to 48	12 to 48	–	–
CN1C(=O)N(Cc2ccc(C(C)(C)c3cc(Cl)c(OCCCCl)c(Cl)c3)cc2)C(=O)C1(C)C [Compound B1]	500 to 2000	–	≥ 48	12 to 48	–	–
